Experimental data as given in patent US20230382851A1, “GAMMA-HYDRO[…] AND PROCESSES FOR MAKING AND USING THEM” (Zevra Therapeutics, Inc., priority 2022, published 2023).

Test: Pharmacokinetics of GHB in plasma after oral gavage of GHB delivering compounds; relative oral bioavailability vs sodium oxybate
Conditions: vehicle water
[1] = molar equivalent of 100 mg/kg NaGHB
[2] = dose equivalent to 80 mg/kg NaGHB

Row | SMILES | % AUC0-4 hr vs study comparator (sodium oxybate) [1] [%] | % Cmax vs study comparator (sodium oxybate) [1] [%] | % AUC0-4 hr vs study comparator (sodium oxybate) [2] [%] | % Cmax vs study comparator (sodium oxybate) [2] [%]
1 | O=C1CCCO1 [GBL] | 27 | 70 |  | 
2 | CCOC(=O)OCCCC(=O)O [O-(ethoxycarbonyl)-GHB, O-(Ethoxycarbonyl)-GHB] |  |  | 54 | 51
